From US12102637B2, “Pharmaceutical formulations for treating endometriosis, uterine fibroids, polycystic ovary syndrome or adenomyosis” (AbbVie Inc., priority 2017, dated 2024)
“Also recorded” adds a separate entry of the source.

What was measured:
rats = assay: 2-year carcinogenicity study in rats; format: in vivo; settings: rat
Text: The rat tumors were identified as being species-specific and of negligible relevance to humans. This conclusion is based on a follow-on thyroid and hepatic effects-related investigative study performed to document the possibility that thyroid and liver tumors may be specific to rat and occurred via induction of hepatic drug metabolizing enzymes at the high dose.

[1] = tested on: cytochrome P450 (CYP) 3A enzyme; assay: Elagolix as inducer and substrate of CYP3A
Text: Co-administration with elagolix may decrease plasma concentration of drugs that are substrates of CYP3A.
Elagolix is a substrate of CYP3A, P-gp, and organic anion transporting polypeptide (OATP)1B1. Clinically meaningful interactions are not expected when elagolix is co-administered with drugs that inhibit CYP3A or P-gp.

[2] = tested on: women treated in Studies EM-I and EM-II; assay: Adverse reactions in Studies EM-I and EM-II; format: in vivo, human; settings: for Percentage of Patients with Amenorrhoea / Percentage of Patients with Anxiety / Percentage of Patients with Arthralgia / Percentage of Patients with Headache / Percentage of Patients with Hot Flush / Percentage of Patients with Insomnia / Percentage of Patients with Nasopharyngitis / Percentage of Patients with Nausea / Percentage of Patients with Sinusitis / Percentage of Patients with Upper Respiratory Tract Infection: Studies EM-I and EM-II; for discontinuations due to hot flush / discontinuations due to nausea / patients who discontinued therapy due to adverse reactions: EM-I and EM-II
Text: The population age range was 18-49 years old. Women who completed six months of treatment and met eligibility criteria continued treatment in two blinded six-month extension studies, for a total treatment duration of up to 12 months.

menstrual bleeding = assay: Effects on menstrual bleeding patterns (electronic daily diary; bleeding/spotting days, intensity, amenorrhea, resumption of menses); format: in vivo, human; settings: for Mean bleeding/spotting days in prior 28 days / Mean Intensity score: Baseline; for Mean Intensity score: scale 1 to 4 (1 = spotting, 4 = heavy), subjects with at least 1 day of bleeding or spotting in 28 day interval
[3] = tested on: bone mineral density (BMD); assay: Bone mineral density by DXA (lumbar spine, Z-score) in placebo-controlled and extension studies; format: in vivo, human; settings: for patients with Z-score below the normal lower bound of −2.0: following 12 months of treatment
Protocol: In the placebo-controlled and extension clinical studies, BMD was measured by DXA. Changes observed in BMD at other anatomical sites (femoral neck, total hip) were generally smaller than lumbar spine.

pKa of elagolix = format: physicochemical
[4] = Lactation study in rats (elagolix in pup plasma); format: in vivo, rat
Protocol: Pregnant rats were given diet containing elagolix throughout the gestation and lactation periods to achieve a daily elagolix dose of 400 mg/kg. During nursing the dams and litters were divided into restricted feeding and non-restricted groups to determine whether elagolix was secreted in the mother's milk. […] In pups of the non-restricted feeding group, elagolix plasma concentrations were measurable and approximately 1% of the mother's plasma concentrations.

[5] = Compound A solubility experiment in water at 37° C. (gel formation); format: physicochemical
Protocol: The dotted line in FIG. 2 is the theoretical concentration based on the weights of the solids added and the volume of water. […] Deviation of the concentrations from the theoretical line is due to the volume expansion upon dissolution of large amount of solutes. Beyond that, the concentrations deviate from the theoretical line, but the solution is still clear and no visible gelling was observed. When more than 500 mg of Compound A solid was added, visible gelling was observed, therefore, concentrations were not determined.

estradiol = assay: Estradiol suppression in the Phase 3 studies in women with endometriosis; format: in vivo, human; settings: 150 mg QD, partial suppression
[6] = tested on: CYP3A, CYP2D6, CYP2C8, uridine glucuronosyltransferases (UGTs); assay: Metabolism pathways of elagolix; format: in vitro ADME, human
[7] = Mutagenicity studies, in vitro and in vivo test systems
Text: Mutagenicity studies have been performed with elagolix using in vitro and in vivo test systems.

[8] = BCS classification of Compound A; format: physicochemical
Text: Release Profile Drugs administered via oral solid dosage forms should dissolve in vivo before systemic absorption can take place. There are number of factors which affect drug dissolution, including physicochemical properties of the drug substance. […] Incomplete dissolution may result in highly variable inter- and intra patient bioavailability. It has been determined in the present application that Compound A is a BCS class III drug. It also has been determined in the present application that the monosodium salt of Compound A has a tendency to form a gel, particularly when present at an amount greater than about 10% by weight in the absence of an appropriate anti-gelling agent, when administered orally in a solid dosage form. Thus, it is desirable to provide oral solid dosage forms that facilitate drug dissolution.

[9] = Elagolix 150 mg QD, On Treatment Month 6
[10] = Elagolix 150 mg QD, On Treatment Month 12
[11] = Elagolix 200 mg BID, On Treatment Month 6
[12] = Elagolix 200 mg BID, On Treatment Month 12

**Q.** What does the source list for `COc1cccc(-c2c(C)n(Cc3c(F)cccc3C(F)(F)F)c(=O)n(C[C@H](NCCCC(=O)O)c3ccccc3)c2=O)c1F` [Compound A, 4-((R)-2-[5-(2-fluoro-3-methoxy-phenyl)-3-(2-fluoro-6-trifluoromethyl-benzyl)-4-methyl-2,6-dioxo-3,6-dihydro-2H-pyrimidin-1-yl]-1-phenyl-ethylamino)-butyric acid]?
**A.** margin of safety with respect to 200 mg BID in women (rats; both, in vivo, 2 years): 13 fold; tumors, 2-year carcinogenicity study (rats; high dose): increase in thyroid (male and female) and liver (males only) tumors; induction of cytochrome P450 (CYP) 3A enzyme [1]: weak to moderate inducer; substrate of CYP3A [1]: substrate; Percentage of Patients with Amenorrhoea ([2]; 150 mg QD, N = 475): 4%; Percentage of Patients with Anxiety ([2]; 150 mg QD, N = 475): 3%; Percentage of Patients with Arthralgia ([2]; 150 mg QD, N = 475): 3%; Percentage of Patients with Headache ([2]; 150 mg QD, N = 475): 17%; Percentage of Patients with Hot Flush ([2]; 150 mg QD, N = 475): 23%; Percentage of Patients with Insomnia ([2]; 150 mg QD, N = 475): 6%; Percentage of Patients with Nasopharyngitis ([2]; 150 mg QD, N = 475): 6%; Percentage of Patients with Nausea ([2]; 150 mg QD, N = 475): 11%; Percentage of Patients with Sinusitis ([2]; 150 mg QD, N = 475): 5%; Percentage of Patients with Upper Respiratory Tract Infection ([2]; 150 mg QD, N = 475): 6%; Percentage of Patients with Amenorrhoea ([2]; 200 mg BID, N = 477): 7%; Percentage of Patients with Anxiety ([2]; 200 mg BID, N = 477): 5%; Percentage of Patients with Arthralgia ([2]; 200 mg BID, N = 477): 5%; Percentage of Patients with Headache ([2]; 200 mg BID, N = 477): 20%; Percentage of Patients with Hot Flush ([2]; 200 mg BID, N = 477): 45%; Percentage of Patients with Insomnia ([2]; 200 mg BID, N = 477): 9%; Percentage of Patients with Nasopharyngitis ([2]; 200 mg BID, N = 477): 6%; Percentage of Patients with Nausea ([2]; 200 mg BID, N = 477): 16%; Percentage of Patients with Sinusitis ([2]; 200 mg BID, N = 477): 6%; Percentage of Patients with Upper Respiratory Tract Infection ([2]; 200 mg BID, N = 477): 4%; discontinuations due to hot flush ([2]; 150 mg QD): 0.8%; discontinuations due to nausea ([2]; 150 mg QD): 0.8%; patients who discontinued therapy due to adverse reactions ([2]; 150 mg QD): 5.5%; discontinuations due to hot flush ([2]; 200 mg BID): 2.5%; discontinuations due to nausea ([2]; 200 mg BID): 1.5%; patients who discontinued therapy due to adverse reactions ([2]; 200 mg BID): 9.6%; Events of hot flushes ([2]; majority assessed as mild to moderate): dose-dependent; Mean bleeding/spotting days in prior 28 days (menstrual bleeding; Elagolix 150 mg Once Daily): 5.3 days; Mean Intensity score (menstrual bleeding; Elagolix 150 mg Once Daily): 2.6; Mean bleeding/spotting days in prior 28 days (menstrual bleeding; Elagolix 200 mg Twice Daily): 5.7 days; Mean Intensity score (menstrual bleeding; Elagolix 200 mg Twice Daily): 2.5; incidence of amenorrhea (menstrual bleeding; first six months of treatment, 150 mg once daily): 6-17%; incidence of amenorrhea (menstrual bleeding; first six months of treatment, 200 mg twice daily): 13-52%; incidence of amenorrhea (menstrual bleeding; second 6 months of treatment, 150 mg once daily): 11-15%; incidence of amenorrhea (menstrual bleeding; second 6 months of treatment, 200 mg twice daily): 46-57%; bleeding and spotting days and bleeding intensity (menstrual bleeding; up to 12 months, subjects who reported menstrual bleeding): dose-dependent reduction in mean number of bleeding and spotting days and bleeding intensity; % Subjects Z-score ≤ −1.5 of Lumbar Spine [3, 9]: 0.8%; Mean Percent Change From Baseline in Bone Mineral Density of Lumbar Spine [3, 9]: −0.52%; % Subjects Z-score ≤ −1.5 of Lumbar Spine [3, 10]: 1.3%; Mean Percent Change From Baseline in Bone Mineral Density of Lumbar Spine [3, 10]: −0.87%; % Subjects Z-score ≤ −1.5 of Lumbar Spine [3, 11]: 4.1%; Mean Percent Change From Baseline in Bone Mineral Density of Lumbar Spine [3, 11]: −2.54%; % Subjects Z-score ≤ −1.5 of Lumbar Spine [3, 12]: 5.1%; Mean Percent Change From Baseline in Bone Mineral Density of Lumbar Spine [3, 12]: −3.76%; BMD after stopping treatment ([3]; both elagolix treatment groups, lumbar spine, total hip and femoral neck, post-treatment months 6 and 12): progressive recovery of BMD; patients with Z-score below the normal lower bound of −2.0 ([3]; 150 mg daily dose): no patient; patients with Z-score below the normal lower bound of −2.0 ([3]; 200 mg BID dose): less than 1%; pKa (pKa of elagolix): ~7.89; elagolix plasma concentrations in pups, % of the mother's plasma concentrations ([4]; dams 400 mg/kg daily in diet, non-restricted feeding group): approximately 1%; elagolix plasma concentrations in pups ([4]; dams 400 mg/kg daily in diet, restricted feeding litters, post natal day 10 and 20): not measurable; secretion in milk ([4]; listed as elagolix): secreted minimally via milk; also recorded: minimally secreted in milk; Final pH ([5]; 12.2 mg added to 1.5 mL water): 9.66; Measured Concentration ([5]; 12.2 mg added to 1.5 mL water): 7.45 mg/mL; Observation ([5]; 12.2 mg added to 1.5 mL water): Clear solution; Final pH ([5]; 28.7 mg added to 1.5 mL water): 9.96; Measured Concentration ([5]; 28.7 mg added to 1.5 mL water): 17.3 mg/mL; Observation ([5]; 28.7 mg added to 1.5 mL water): Clear solution; Final pH ([5]; 49.8 mg added to 1.5 mL water): 10.10; Measured Concentration ([5]; 49.8 mg added to 1.5 mL water): 28.0 mg/mL; Observation ([5]; 49.8 mg added to 1.5 mL water): Clear solution; Final pH ([5]; 100.4 mg added to 1.5 mL water): 10.16; Measured Concentration ([5]; 100.4 mg added to 1.5 mL water): 60.8 mg/mL; Observation ([5]; 100.4 mg added to 1.5 mL water): Clear solution; Final pH ([5]; 202.5 mg added to 1.5 mL water): 10.18; Measured Concentration ([5]; 202.5 mg added to 1.5 mL water): 111 mg/mL; Observation ([5]; 202.5 mg added to 1.5 mL water): Clear solution; Final pH ([5]; 295.6 mg added to 1.5 mL water): 10.20; Measured Concentration ([5]; 295.6 mg added to 1.5 mL water): 149 mg/mL; Observation ([5]; 295.6 mg added to 1.5 mL water): Clear solution; Final pH ([5]; 503.2 mg added to 1.5 mL water): 10.17; Measured Concentration ([5]; 503.2 mg added to 1.5 mL water): 170 mg/mL; Observation ([5]; 503.2 mg added to 1.5 mL water): Clear solution; Observation ([5]; 700.9 mg added to 1.5 mL water): Gel formation; Observation ([5]; 990.0 mg added to 1.5 mL water): Gel formation; suppression of estradiol to (estradiol): approximately 50 pg/mL; Metabolism (major pathway) [6]: CYP3A (major); Metabolism, minor pathways ([6]; listed as Elagolix): Minor pathways include: CYP2D6,; also recorded: CYP2C8, and uridine; also recorded: glucuronosyltransferases (UGTs); mutagenic or clastogenic potential [7]: no evidence of a mutagenic or clastogenic potential; BCS class [8]: BCS class III
